In publication PMC11718471 (World Journal of Diabetes, 2025):

Assays:
blood glucose = experiment: Euglycemic clamp, glucose infusion rate; assay type: in vivo, human; settings: healthy subjects, 0.2 IU/kg s.c., 8-hour euglycemic clamp, 20% dextrose, group A (target BG 2.5% below baseline), n = 15, mean ± SD
[1] = Plasma IAsp exposure during 8-hour euglycemic clamp; assay type: in vivo, human; settings: healthy subjects, 0.2 IU/kg s.c., group A (basal BG < 4.00 mmol/L, target BG 2.5% below baseline), before PSM, n = 15, LC-MS/MS, trapezoidal, mean ± SD

insulin aspart [IAsp]
AUCGIR, 0-8 h (blood glucose; after PSM): 1433 ± 400 mg/kg
AUCGIR, 0-8 h (blood glucose; before PSM): 1433 ± 400 mg/kg
AUCIAsp, 0-8 h [1]: 566 ± 51 ng·h/mL
